Experimental data reported in patent US8802664B2 (Bioproject, priority 2010, dated 2014).
Counter-ions that a name gives are not always drawn.

Experiments:
[1] = biological target: T1, human H4 receptor (Homo sapiens, UniProt Q9H3N8); assay: [3H]Histamine binding on membranes of CHO cells stably expressing human H4 receptor
T1 construct: expressed in transfected cells
How it was run: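 Filter-bound counts (liquid scintillation) gave H4 binding. Incubation used 20 μg membrane protein/well in Tris/HCl 50 mM plus EDTA 0.5 mM at pH 7.4, and 10 μM JNJ 7777120 set nonspecific binding. Filtration on GF/B pretreated with polyethyleneimine stopped the reaction.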

SMILES	melting point	Ki or IC50 activity class [1]
CN1CCC(NC(c2cccc(N=[N+]=[N-])c2)c2nc3ccccc3[nH]2)CC1 (stereo not shown) [Example 132, [(3-azidophenyl)(1H-benzimidazol-2-yl)methyl](1-methylpiperidin-4-yl)amine]	202 °C	< 300 nM
CC(C)CCOc1cccc(C(NC2CCN(C)CC2)c2nc3ccccc3[nH]2)c1 (stereo not shown) [Example 68, {(1H-benzimidazol-2-yl)[3-(3-methylbutoxy)phenyl]methyl}(1-methylpiperidin-4-yl)amine]	70 °C	< 300 nM
CN1CCC(NC(c2ccccc2)c2nc3ccccc3[nH]2)CC1 (stereo not shown) [Example 39, [(1H-benzimidazol-2-yl)phenylmethyl](1-methylpiperidin-4-yl)amine]	133 °C	< 300 nM
CN1CCC(OC(c2cccc(SCc3ccccc3)c2)c2nc3ccccc3s2)CC1 (stereo not shown) [Example 148, 2-[(3-benzylsulfanylphenyl)(1-methylpiperidin-4-yloxy)methyl]benzothiazole]	195 °C	< 300 nM
Cc1cc(F)cc(C(NC2CCN(C)CC2)c2nc3ccccc3s2)c1 (stereo not shown) [Example 44, [benzothiazol-2-yl(3-fluoro-5-methylphenyl)methyl](1-methylpiperidin-4-yl)amine]	102 °C	< 1000 nM
CSc1cccc(C(NC2CCN(C)CC2)c2nc3ccccc3s2)c1 (stereo not shown) (as salt: oxalate) [Example 111, [benzothiazol-2-yl(3-methylsulfanylphenyl)methyl](1-methylpiperidin-4-yl)amine]	85 °C	
COCCn1c(C(OC2CCN(C)CC2)c2cccc(C#CCCCCN)c2)nc2ccccc21 (stereo not shown) (as salt: oxalate) [Example 501]	109 °C	
CN1CCC(OC(c2ccccc2)c2nc3ccccc3s2)C1 (stereo not shown) (as salt: oxalate) [Example 2, 2-[(1-methylpyrrolidin-3-yloxy)phenyl-methyl]benzothiazole]	120 °C	
COc1cccc(C(NC2CCN(C)CC2)c2nc3ccccc3s2)c1 (stereo not shown) (as salt: oxalate) [Example 25, [benzothiazol-2-yl(3-methoxyphenyl)methyl](1-methylpiperidin-4-yl)amine]	160 °C	
CCCOc1cccc(C(OC2CCN(C)CC2)c2nc3ccccc3s2)c1 (stereo not shown) (as salt: hydrochloride) [Example 26, 2-[(1-methylpiperidin-4-yloxy)(3-propoxy-phenyl)methyl]benzothiazole]	59 °C	
CN1CCC(OC(c2cccc(OCCCN3CCOCC3)c2)c2nc3ccccc3s2)CC1 (stereo not shown) (as salt: oxalate) [Example 350, 2-{(1-methylpiperidin-4-yloxy)[3-(3-morpholin-4-yl-propoxy)phenyl]methyl}benzothiazole]	105 °C	
CCOCCn1c(C(OC2CCN(C)CC2)c2cccc(I)c2)nc2ccccc21 (stereo not shown) (as salt: oxalate) [Example 497, 1-(2-ethoxyethyl)-2-[(3-iodophenyl)(1-methylpiperidin-4-yloxy)methyl]-1H-benzimidazole]	88 °C	
CN1CCC(OC(c2cccc(OC3CCC(N)CC3)c2)c2nc3ccccc3s2)CC1 (stereo not shown) (as salt: oxalate) [Example 477]	95 °C	
CN1CCC(OC(c2cccc(OCCN3CCN(C(=O)OC(C)(C)C)CC3)c2)c2nc3ccccc3[nH]2)CC1 (stereo not shown) (as salt: oxalate) [Example 369, 4-(2-{3-[(1H-benzimidazol-2-yl)(1-methylpiperidin-4-yloxy)methyl]phenoxy}ethyl)piperazine-1-carboxylic acid tert-butyl ester]	92 °C	
CN1CCC(OC(c2cccc(CCCCCN)c2)c2nc3ccccc3s2)CC1 (stereo not shown) (as salt: hydrochloride) [Example 289, 5-{3-[benzothiazol-2-yl(1-methylpiperidin-4-yloxy)methyl]phenyl}pentylamine]	110 °C	
CCCCOc1cccc(C(NC2CCN(C)CC2)c2nc3ccccc3[nH]2)c1 (stereo not shown) (as salt: oxalate) [Example 69, [(1H-benzimidazol-2-yl)(3-butoxyphenyl)methyl](1-methylpiperidin-4-yl)amine]	137 °C	

More lines, now with the values ahead:

melting point	Ki or IC50 activity class [1]	SMILES
181 °C	< 30 nM	CN1CCC(OC(c2nc3ccccc3[nH]2)c2ccccc2F)CC1 (stereo not shown) [Example 167, 2-[(2-fluorophenyl)(1-methylpiperidin-4-yloxy)methyl]-1H-benzimidazole]
161 °C	< 300 nM	CN1CCC(OC(c2cccc(SCCNc3c(N)c(=O)c3=O)c2)c2nc3ccccc3[nH]2)CC1 (stereo not shown) [Example 385, 3-amino-4-(2-{3-[(1H-benzimidazol-2-yl)(1-methylpiperidin-4-yloxy)methyl]phenylsulfanyl}ethylamino)-cyclobut-3-ene-1,2-dione]
97 to 99 °C	< 300 nM	CN1CCC(OC(c2cccc(SCCCO)c2)c2nc3ccccc3[nH]2)CC1 (stereo not shown) [Example 246, 3-{3-[(1H-benzimidazol-2-yl)(1-methylpiperidin-4-yloxy)methyl]phenylsulfanyl}propan-1-ol]
132 °C	< 300 nM	COc1cc(F)c(O)c(C(OC2CCN(C)CC2)c2nc3ccccc3[nH]2)c1 (stereo not shown) [Example 608]
120 °C		CN1CCC(OC(c2cccc(-c3cccc(F)c3)c2)c2nc3ccccc3[nH]2)CC1 (stereo not shown) (as salt: oxalate) [Example 109, 2-[(3′-fluoro-biphenyl-3-yl)(1-methylpiperidin-4-yloxy)methyl]-1H-benzimidazole]
142 °C		CCSc1cc(C(OC2CCN(C)CC2)c2nc3ccccc3[nH]2)ccc1C (stereo not shown) (as salt: oxalate) [Example 274, 2-[(3-ethylsulfanyl-4-methylphenyl)(1-methylpiperidin-4-yloxy)methyl]-1H-benzimidazole]
158 °C		CN1CCC(OC(c2nc3ccccc3s2)c2c(F)cc(Cl)cc2F)CC1 (stereo not shown) (as salt: oxalate) [Example 532]
140 °C		CN1CCC(OC(c2cccc(SCCCCCN)c2)c2nc3ccccc3[nH]2)CC1 (stereo not shown) (as salt: oxalate) [Example 381, 5-{3-[(1H-benzimidazol-2-yl)(1-methylpiperidin-4-yloxy)methyl]phenylsulfanyl}pentylamine]
72 °C		COc1ccc(C(OC2CCN(C)CC2)c2nc3ccccc3s2)cc1 (stereo not shown) (as salt: hydrochloride) [Example 14, 2-[(4-methoxyphenyl)(1-methylpiperidin-4-yloxy)methyl]benzothiazole]
158 °C		CN1CCC(OC(c2cccc(Cl)c2)c2nc3ccccc3[nH]2)CC1 (stereo not shown) (as salt: oxalate) [Example 225, 2-[(3-chlorophenyl)(1-methylpiperidin-4-yloxy)methyl]-1H-benzimidazole]
110 °C		Cc1ccc(C(OC2CCN(C)CC2)c2nc3ccccc3o2)c(F)c1 (stereo not shown) (as salt: oxalate) [Example 545]
100 °C		CN1CCC(OC(c2cccc(-c3ccc(F)cc3)c2)c2nc3ccccc3[nH]2)CC1 (stereo not shown) (as salt: oxalate) [Example 115, 2-[(4′-fluorobiphenyl-3-yl)(1-methylpiperidin-4-yloxy)methyl]-1H-benzimidazole]
